Consider 10 molecules from US11524938B2, “Aromatic sulfonamide derivatives” (Bayer Pharma Aktiengesellschaft, priority 2016, dated 2022).

Values joined by “and” are separate entries in the source; they are usually repeats but may differ in a detail not shown here. Equal entries are not always repeated.

Holding throughout (assay type): cell-based
The target of assay [1] is T1, human P2X4 (Homo sapiens, UniProt Q99571).
T1 sequence (Q99571 1-388): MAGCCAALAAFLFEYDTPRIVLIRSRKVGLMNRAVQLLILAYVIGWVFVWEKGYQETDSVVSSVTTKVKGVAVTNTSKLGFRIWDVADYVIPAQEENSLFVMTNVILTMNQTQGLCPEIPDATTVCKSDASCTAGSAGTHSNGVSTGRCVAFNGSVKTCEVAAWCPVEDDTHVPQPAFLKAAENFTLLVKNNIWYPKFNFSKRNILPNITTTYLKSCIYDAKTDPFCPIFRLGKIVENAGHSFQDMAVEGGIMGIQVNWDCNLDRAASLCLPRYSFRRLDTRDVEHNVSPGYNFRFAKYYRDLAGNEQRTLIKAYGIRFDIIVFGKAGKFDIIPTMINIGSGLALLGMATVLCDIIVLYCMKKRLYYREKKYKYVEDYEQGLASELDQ
Put plainly: Human P2X4 HEK Cell FLIPR Assay. The conditions noted are these: agonist Bz-ATP at EC80; for Emax: HEK293, HEK293 cells, percentage of maximal inhibition, read-out: Human P2X4 HEK Cells (FLIPR Assay) avg Efficacy [%]; for IC50: HEK293 cells, individual values listed where some fall outside detection range. A digest of the protocol:
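Calcium flux read by FLIPR for 120 sec after Bz-ATP challenge at EC80 (established each assay day), following 30 min room-temperature compound preincubation in dye-loaded stable human P2X4 HEK293 cells. Peak RFU over basal normalized to agonist control; IC50, maximal inhibition and Hill coefficient from triplicate means.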

A further assay addresses T2, mouse P2X4 (Mus musculus, UniProt Q9JJX6).
T2 sequence (Q9JJX6 1-388): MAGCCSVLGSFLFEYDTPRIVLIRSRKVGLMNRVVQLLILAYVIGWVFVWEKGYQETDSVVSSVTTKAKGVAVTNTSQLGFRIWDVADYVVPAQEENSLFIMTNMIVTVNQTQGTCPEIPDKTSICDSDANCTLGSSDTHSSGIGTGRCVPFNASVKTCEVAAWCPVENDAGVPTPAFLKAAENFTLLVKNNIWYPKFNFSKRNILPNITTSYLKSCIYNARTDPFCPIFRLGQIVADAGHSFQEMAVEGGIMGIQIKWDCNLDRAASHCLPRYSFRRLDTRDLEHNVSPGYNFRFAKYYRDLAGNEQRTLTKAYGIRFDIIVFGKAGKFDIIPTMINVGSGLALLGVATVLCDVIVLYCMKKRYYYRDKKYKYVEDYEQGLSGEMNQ
In words: FLIPR assay, mouse P2X4 1321N1 Astrocytoma cells. Particulars: agonist Mg-ATP 0.5 μM (EC80). The method, then:
(§1) 1321N1 Astrocytoma cells stably expressing human P2X4 or rat P2X4 or mouse P2X4 were plated in Collagen I TC-treated microplate at a seeding density of 10000 cells/well and incubated overnight. P2X4 function was assessed by measuring intracellular calcium changes using the calcium-chelating dye Fluo8-AM (Molecular Devices) on a fluorescent imaging plate reader (FLEX/FLIPR station; Molecular Devices). On the day of the assay, the medium was removed and the cells were incubated for 30 min at 37 °C and 5% CO2 in 30 μL of dye buffer (Hank's balanced salt solution, 10 mM HEPES, 1.8 mM CaCl2, 1 mM MgCl2, 2 mM probenecid, 5 mM D-glucose monohydrate, 5 μM Fluo8-AM, pH=7.4). Compounds diluted in probenecid buffer (Hank's balanced salt solution, 10 mM HEPES, 1.8 mM CaCl2, 1 mM MgCl2, 2 mM probenecid, 5 mM D-glucose monohydrate, pH=7.4) were added in a volume of 10 μL and allowed to incubate for 30 min at room temperature. The final assay DMSO concentration was 0.25%. The agonist, Mg-ATP (Sigma), was added in a volume of 10 μL at a concentration representing the EC80 value. EC80 was determined to be 0.5 μM for human and mouse P2X4 and 5 μM for rat P2X4. The fluorescence was measured for an interval of 120 sec at 2 sec intervals. The excitation and emission wavelengths used to monitor fluorescence were 470-495 nm and 515-575 nm, respectively. The data was analyzed based on the increase in peak relative fluorescence units (RFU) compared to the basal fluorescence and the data was normalized to the agonist control. The compounds were tested in triplicates per plate and mean values were plotted in Excel XLFit to determine IC50 values, percentage of maximal inhibition and the Hill coefficients.

For assay [2], the target named is T1, human P2X4. In words: FLIPR assay, human P2X4 1321N1 Astrocytoma cells. Particulars: agonist Mg-ATP 0.5 μM (EC80). The method, then:
as §1

A further assay deals with T3, rat P2X4 (Rattus norvegicus, UniProt P51577).
T3 sequence (P51577 1-388): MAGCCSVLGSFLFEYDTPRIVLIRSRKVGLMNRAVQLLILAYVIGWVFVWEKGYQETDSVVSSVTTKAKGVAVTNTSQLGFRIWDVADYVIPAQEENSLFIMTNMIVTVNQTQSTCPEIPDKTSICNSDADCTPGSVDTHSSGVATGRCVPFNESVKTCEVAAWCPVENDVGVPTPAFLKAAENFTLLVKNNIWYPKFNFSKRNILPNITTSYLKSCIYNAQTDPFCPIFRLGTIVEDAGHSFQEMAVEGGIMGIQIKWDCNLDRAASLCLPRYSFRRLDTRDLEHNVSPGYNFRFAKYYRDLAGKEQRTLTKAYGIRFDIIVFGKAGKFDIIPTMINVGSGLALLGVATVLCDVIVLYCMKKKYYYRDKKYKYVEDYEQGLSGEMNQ
Put plainly: FLIPR assay, rat P2X4 1321N1 Astrocytoma cells. Particulars: agonist Mg-ATP 5 μM (EC80). The method, then:
as §1

The target of another assay is T4, endogenous P2X4 channels (Homo sapiens, UniProt Q99571).
T4 construct: measure calcium influx through endogenous P2X4 channels into primary human monocytes
T4 sequence (Q99571 1-388): T1 sequence (Q99571 1-388)
In words: Human Monocyte P2X4 Assay (FLIPR). The conditions noted are these: primary human monocytes, 3 μM BzATP, one value per donor. The method, then: The principle of the assay is to measure calcium influx through endogenous P2X4 channels into primary human monocytes, following activation by 2′,3′-O-(4-benzoyl-benzoyl)-ATP (Bz-ATP). Intracellular calcium concentration changes were measured with a Flipr® (Molecular Devices) device using a calcium sensitive dye (Fluo-8). In primary monocytes P2X4 is located at the lysosome membrane, therefore exocytosis has to be triggered to expose P2X4 at the cellular membrane.
Human peripheral blood mononuclear cells (PBMCs) from anticoagulated blood (blood cells, BC) were isolated via density gradient centrifugation. Whole blood was diluted 1:3 with PBS. Samples of 30 mL were layered carefully on top of 15 mL Biocoll (BIOCHROM) in 50 mL centrifuge tubes (Falcon). Tubes were centrifuged at 914×g for 25 min at RT without brake. The PBMC layer was removed with a 10 mL pipette and transferred into tubes with ice-cold PBS in a total volume of 50 mL. Cells were washed twice by pelleting at 300×g at 4° C., for 10 min and for 5 min respectively. PBMCs were re-suspended in 10 mL medium (X-vivo, Biozym Scientific) and counted in a Neubauer chamber.
Monocytes were isolated by negative selection using the Monocyte isolation kit II from Miltenyi (#130-091-153) according to the instructions. Isolation should be done fast and cells and solutions should be kept on ice at any time. PBMCs in batches of 10 exp8 cells were pelleted (300×g, 10 min) and re-suspended with 300 μL MACS buffer in a 50 mL Falcon tube. FcR Blocking reagent (100 μl) and Biotin-Ab (100 μl) were added, mixed and incubated on ice for 10 min. MACS buffer (300 μL) and anti-Biotin Micro-beads (100 μL) were added, mixed and incubated on ice for 15 min. Cells were washed by pelleting (300×g for 10 min) and re-suspended in 500 μL MACS buffer. For each batch one separation column was placed in the MACS separator and rinsed with 3 mL MACS buffer. The cell suspension was added to the column, followed by 3×3 mL MACS buffer for washing, and the eluent containing the monocytes was collected. Cells were pelleted (300×g for 10 min), re-suspended in X-vivo medium and counted. Monocytes were seeded into fibronectin-coated micro-plates (384-well, black, flat transparent bottom; Corning #3848) at a density of 30,000 cells/well in 50 μL, and cultivated over night (37° C., 5% CO2).
Test substances were dissolved in 100% DMSO at a stock concentration of 10 mM and stored at −20° C. in aliquots. Serial dilutions (2×) were prepared in DMSO and diluted 500× with assay buffer to generate the antagonist plate. In the Flipr measurement, 10 μL per well were transferred (4× dilution) and a final top concentrations of 5 μM and 0.05% DMSO were obtained in the assay. Agonist BzATP was stored at 10 mM in aliquots and diluted to an intermediate concentration of 15 μM to generate the agonist plate. In the Flipr measurement, 10 μL per well were transferred (5× dilution) so that a final assay concentration of 3 μM was obtained.
For the experiment, the medium of the cell plate was discarded manually and 70 μL/well loading buffer was added and incubated for 1 h (37° C., 5% CO2). Loading buffer contained HBSS (w/o calcium/magnesium), 10 mM Hepes pH 7.4, 5 μM Fluo-8 (AM) (Tebu-bio) and 50 mM methylamine (Sigma) to trigger exocytosis. Loading buffer was discarded manually and 30 μL/well low-calcium assay buffer (5 mM KCl, 145 mM NaCl, 0.5 mM CaCl2, 13 mM glucose, 10 mM Hepes pH 7.4) was added. The antagonist plate was transferred (10 μL/well) and after 15 min at RT the agonist plate (10 μL/well) was transferred.
Agonist addition was recorded for 240 seconds after a 10 second baseline. For analysis, a baseline correction was applied, and the maximum of the curve was extracted. Data were normalized towards 0% inhibition (signal at 3 μM BzATP) and 100% inhibition (absence of BzATP stimulation) and fitted with a four-parameter sigmoidal inhibition curve using Prism GraphPad to obtain IC50 values.

With `NS(=O)(=O)c1cc(NC(=O)Cc2ccccc2Cl)ccc1-n1cc(C(F)(F)F)cn1` [Example 19, 2-(2-Chlorophenyl)-N-{3-sulfamoyl-4-[4-(trifluoromethyl)-1H-pyrazol-1-yl]phenyl}acetamide], the Emax on human P2X4 [1] was 71%. For the same molecule, on mouse P2X4, the “Mouse P2X4 1321N1 Astrocytoma Cells (FLIPR Assay) avg Efficacy [%]” value was 69%. Besides, the “Human P2X4 1321N1 Astrocytoma Cells (FLIPR Assay) avg Efficacy [%]” value on human P2X4 [2] was determined as 60%. Moreover, the “Rat P2X4 1321N1 Astrocytoma Cells (FLIPR Assay) avg Efficacy [%]” value on rat P2X4 was 57%.

As for `NS(=O)(=O)c1cc(NC(=O)Cc2ccccc2Cl)ccc1-n1cnc(Cl)n1` [Example 24, 2-(2-Chlorophenyl)-N-[4-(3-chloro-1H-1,2,4-triazol-1-yl)-3-sulfamoylphenyl]-acetamide], on human P2X4 [1], the Emax amounted to 92%. Besides, the “Human P2X4 Monocytes (FLIPR Assay) Efficacy for different donors” value (shortened to “Human P2X4 Monocytes … for different donors”) on endogenous P2X4 channels was 77% and 88%.

With `NS(=O)(=O)c1cc(NC(=O)Cc2ccccc2Cl)ccc1-n1cc(F)cn1` [Example 26, 2-(2-Chlorophenyl)-N-[4-(4-fluoro-1H-pyrazol-1-yl)-3-sulfamoylphenyl]acetamide], the Emax at human P2X4 [1] worked out at 85%. In addition, the “Human P2X4 Monocytes … for different donors” value at endogenous P2X4 channels is on record as 88%.

Consider `NS(=O)(=O)c1cc(NC(=O)Cc2ccccc2Cl)ccc1-n1cc(Br)cn1` [Example 28, N-[4-(4-Bromo-1H-pyrazol-1-yl)-3-sulfamoylphenyl]-2-(2-chlorophenyl)acetamide], for which, on human P2X4 [1], the Emax amounted to 90%. At endogenous P2X4 channels, the “Human P2X4 Monocytes … for different donors” value is 64% and 90%.

`COc1ccc(CC(=O)Nc2ccc(-n3cc(Cl)cn3)c(S(N)(=O)=O)c2)cc1` [Example 170, N-[4-(4-Chloro-1H-pyrazol-1-yl)-3-sulfamoylphenyl]-2-(4-methoxyphenyl)acetamide]: on human P2X4 [1], the Emax came to 70%. Also, on endogenous P2X4 channels, the “Human P2X4 Monocytes … for different donors” value was 69% and 54%.

Consider `NS(=O)(=O)c1cc(NC(=O)Cc2ccccc2F)cnc1-c1cnn(C(F)F)c1` [Example 321, N-{6-[1-(Difluoromethyl)-1H-pyrazol-4-yl]-5-sulfamoylpyridin-3-yl}-2-(2-fluorophenyl)acetamide], for which the results for the Emax on human P2X4 [1] and at endogenous P2X4 channels (read-out: Human P2X4 Monocytes (FLIPR Assay) Efficacy for different donors) were 84% and 49%, respectively. Besides, the “Human P2X4 Monocytes … for different donors” value on endogenous P2X4 channels is 34% and 46% and 95%. For the same molecule, the IC50 at endogenous P2X4 channels (read-out: Human P2X4 Monocytes (FLIPR Assay) IC50 for different donors) came out at 157 nM.

For the molecule `NS(=O)(=O)c1cc(NC(=O)Cc2ccccc2Cl)cnc1-n1cc(C(F)(F)F)cn1` [Example 380, 2-(2-Chlorophenyl)-N-{5-sulfamoyl-6-[4-(trifluoromethyl)-1H-pyrazol-1-yl]pyridin-3-yl}acetamide], at human P2X4 [1], the Emax stood at 69%. The “Human P2X4 Monocytes … for different donors” value at endogenous P2X4 channels was 32% and 107%.

As for `NS(=O)(=O)c1cc(NC(=O)Cc2ccccc2Cl)cnc1-n1cc(Cl)cn1` [Example 387, 2-(2-Chlorophenyl)-N-[6-(4-chloro-1H-pyrazol-1-yl)-5-sulfamoylpyridin-3-yl]acetamide], the Emax at human P2X4 [1] is 73%. Also, at endogenous P2X4 channels, the “Human P2X4 Monocytes … for different donors” value is on record as 51%.

Take `N#Cc1cnn(-c2ccc(NC(=O)Cc3c(O)cccc3Cl)cc2S(N)(=O)=O)c1` [Example 557, 2-(2-Chloro-6-hydroxyphenyl)-N-[4-(4-cyano-1H-pyrazol-1-yl)-3-sulfamoylphenyl]acetamide]: at human P2X4 [1], the Emax was determined as 89% and the IC50 worked out at 11 nM.

`N#Cc1cnn(-c2ccc(NC(=O)C(O)c3ccccc3Cl)cc2S(N)(=O)=O)c1` (stereo not drawn) [Example 558, 2-(2-Chlorophenyl)-N-[4-(4-cyano-1H-pyrazol-1-yl)-3-sulfamoylphenyl]-2-hydroxyacetamide]: on human P2X4 [1], the Emax amounted to 75% and the IC50 is 1380 nM.

A word on the IC50: it is the point on the concentration scale where inhibition reaches its midpoint.
